# From PubChem BioAssay (NCI)
# Several values for one entry are separate records, joined by “and”; a condition that tells them apart may be missing. Identical values can stand only once.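 Five compound concentrations were applied to cells in 96-well plates for 48 hours; endpoints were derived by simple linear interpolation of the resulting dose-response curve. GI50 marks 50% less growth. Definition used: TGI = concentration required for complete inhibition of growth.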
# Columns and labels:
# Experiment in all cases: NCI anticancer screen, dose series, 48 h
# [1] = tested on: BT-549 breast
# [2] = tested on: EKVX NSCLC
# [3] = tested on: HS 578T breast
# [4] = tested on: OVCAR-3 ovarian
# [5] = tested on: OVCAR-8 ovarian
# [6] = tested on: PC-3 prostate
# [7] = tested on: SF-268 CNS
# [8] = tested on: SF-539 CNS
# [9] = tested on: SN12C renal
# [10] = tested on: TK-10 renal
Compound,GI50 [1],TGI [1],GI50 [2],TGI [2],GI50 [3],TGI [3],GI50 [4],TGI [4],GI50 [5],TGI [5],GI50 [6],TGI [6],GI50 [7],TGI [7],GI50 [8],TGI [8],GI50 [9],TGI [9],GI50 [10],TGI [10]
COc1ccc(-c2oc(=O)ccc2C#Cc2cc(OC)c(OC)c(OC)c2)cc1O,27 µM,> 100 µM,66.7 µM,> 100 µM,30.2 µM,> 100 µM,20.9 µM,70.6 µM,35.2 µM,> 100 µM,23.3 µM,> 100 µM,15.7 µM,58.5 µM,20 µM,86.2 µM,41.5 µM,> 100 µM,83.9 µM,> 100 µM
C[C@]12O[C@H](C[C@]1(O)CO)n1c3ccccc3c3c4c(c5c6ccccc6n2c5c31)CNC4=O,0.203 µM and 0.288 µM,1.45 µM and 1.81 µM,1.56 µM,> 9.15 µM,0.178 µM and 0.239 µM,3.01 µM and 3.61 µM,0.37 µM and 0.391 µM,3.31 µM and 2.76 µM,0.367 µM and 0.391 µM,> 5.35 µM and 6.53 µM,0.0846 µM and 0.133 µM,> 5.89 µM and 3.9 µM,0.209 µM and 0.222 µM,2.56 µM and 2.86 µM,0.114 µM and 0.0846 µM,0.889 µM and 0.54 µM,0.0382 µM and 0.0293 µM,2.01 µM and 2.35 µM,0.0223 µM and 0.0189 µM,1.07 µM and 0.744 µM
S=c1nc(-c2nc(=S)[nH]c3c2CCCCCCCCCC3)c2c([nH]1)CCCCCCCCCC2,–,> 100 µM,–,> 100 µM,–,> 100 µM,–,> 100 µM,–,> 100 µM,–,> 100 µM,–,> 100 µM,–,> 100 µM,–,> 100 µM,–,> 100 µM
CN(C)C[C@H]1CC[C@@H](CN(C)C)C1=O,–,14.1 µM,–,24.3 µM,–,36.6 µM,–,16.6 µM,–,17.1 µM,–,15.7 µM,–,25.1 µM,–,21.4 µM,–,15.4 µM,–,15 µM
O=P(Oc1ccc(Cl)cc1)(Oc1ccc(Cl)cc1)N1CC1,–,> 10 µM,–,> 10 µM,–,> 10 µM,–,> 10 µM,–,> 10 µM,–,> 10 µM,–,> 10 µM,–,> 10 µM,–,> 10 µM,–,> 10 µM
C(=N\Nc1nnc2c(n1)[nH]c1ccccc12)/c1cccnc1,–,> 100 µM,–,> 100 µM,–,> 100 µM,–,> 100 µM,–,> 100 µM,–,> 100 µM,–,> 100 µM,–,> 100 µM,–,> 100 µM,–,> 100 µM
CN(C)CCCNc1nn2c(=O)c3ccccc3nc2c2ccccc12,10.9 µM,45.7 µM,14.4 µM,51.1 µM,3.67 µM,19.9 µM,10.5 µM,26.4 µM,7.08 µM,40.7 µM,11.7 µM,36.9 µM,7.25 µM,37.9 µM,3.95 µM,15.4 µM,5.95 µM,> 100 µM,11.1 µM,45.4 µM
O=C(/C=C/c1ccc(C(F)(F)F)cc1)c1ccc(Nc2nc(NCCO)nc(NCCO)n2)cc1,2.53 µM,8 µM,3.49 µM,16.8 µM,5.44 µM,54 µM,2.02 µM,4.19 µM,3.31 µM,20.2 µM,3.29 µM,13.1 µM,2.8 µM,11.5 µM,1.68 µM,3.38 µM,2.71 µM,9.7 µM,2.93 µM,14.5 µM
COc1ccc2c(c1)CCC1C2CC[C@@]2(C)C1CC[C@@]2(O)CNC(=O)/C=C/c1ccc(O)c(OC)c1 (stereo partly drawn),16.2 µM,75.7 µM,10.7 µM,83.7 µM,75.3 µM,> 100 µM,37.5 µM,> 100 µM,38.4 µM,> 100 µM,12.1 µM,83.8 µM,20 µM,> 100 µM,–,19.3 µM,24.3 µM,> 100 µM,6.86 µM,> 100 µM
CC(C)C[C@H](NC(=O)[C@H](CCc1ccccc1)NC(=O)CN1CCOCC1)C(=O)N[C@@H](Cc1ccccc1)C(=O)N[C@@H](CC(C)C)C(=O)[C@@]1(C)CO1,< 0.01 µM,0.0242 µM,0.0566 µM,–,0.0224 µM,3.34 µM,< 0.01 µM,0.0172 µM,0.0204 µM,0.0952 µM,0.0247 µM,0.305 µM,< 0.01 µM,0.252 µM,< 0.0133 µM,0.0367 µM,< 0.0132 µM,0.0349 µM,0.0144 µM,0.0934 µM
C=C(C=O)C1CC(=O)C(C(=O)OC)[C@@H]2O[C@@](C)(CC2=O)C[C@@H]2OC(=O)[C@]3(O[C@@H]23)[C@@H](C(=O)OC)C1 (stereo partly drawn),21.7 µM,55 µM,27.2 µM,95.1 µM,32.8 µM,> 100 µM,12.8 µM,32.8 µM,17.9 µM,62.4 µM,19.3 µM,57.6 µM,21.5 µM,65.9 µM,18 µM,61.2 µM,18.7 µM,50.4 µM,24.7 µM,42 µM
CCN1CCN(c2nc(NNC(=O)Cc3ccccc3)nc(N3CCN(C(c4ccccc4)c4ccccc4)CC3)n2)CC1,1.67 µM,3.61 µM,9.99 µM,30 µM,1.68 µM,3.79 µM,2 µM,4.08 µM,2.51 µM,6.57 µM,2.51 µM,8.61 µM,2.06 µM,5.06 µM,1.78 µM,3.24 µM,1.85 µM,3.44 µM,1.97 µM,3.85 µM
Nc1[nH]c(=O)ncc1F,–,> 100 µM,–,> 100 µM,–,> 100 µM,–,> 100 µM,–,> 100 µM,–,> 100 µM,–,> 100 µM,–,> 100 µM,–,> 100 µM,–,> 100 µM
CCCS(=O)(=O)Nc1ccc(F)c(C(=O)c2c[nH]c3ncc(-c4ccc(Cl)cc4)cc23)c1F,5.2 µM and > 7.63 µM,19.2 µM and > 10 µM,6.86 µM and > 10 µM,40.7 µM and > 10 µM,1.3 µM and 1.96 µM,6.44 µM and 9.94 µM,7.65 µM and > 8.66 µM,25.5 µM and > 10 µM,6.16 µM and > 8.65 µM,43.6 µM and > 10 µM,2.98 µM and 6.01 µM,16.7 µM and > 10 µM,6.09 µM and 6.67 µM,23.6 µM and > 10 µM,3.91 µM and 4.51 µM,17.1 µM and > 10 µM,4.52 µM and > 8.4 µM,21.9 µM and > 10 µM,5.99 µM and 5.48 µM,34.6 µM and > 10 µM
